Assays:
Assay in all cases: two-electrode voltage clamp, oocytes, concentration-response
Type in all cases: cell-based
[1] = molecular target: T1, Xenopus tropicalis α4β2 nAChR, α4β2(FS) (Xenopus tropicalis, UniProt A0A8J0QAC2+A4IIS6)
T1 construct: gene chrna4; full-length single subunits in pCMV-SPORT6 (Dharmacon), cRNA co-injected in Xenopus laevis oocytes; stoichiometry unknown
Excerpt: (§1) two-electrode voltage clamp, oocytes, concentration-response on Xenopus tropicalis α4β2 nAChR, α4β2(FS)

[2] = molecular target: T2, Xenopus tropicalis α4β2 nAChR, α4β2(FS) (Xenopus tropicalis, UniProt A0A8J0QAC2+A4IIS6, A4IIS6:F131L/A4IIS6:S133C)
T2 construct: gene chrna4; full-length single subunits in pCMV-SPORT6 (Dharmacon), cRNA co-injected in Xenopus laevis oocytes; stoichiometry unknown
Excerpt: as §1

[3] = molecular target: T3, Xenopus tropicalis α4β2 nAChR, α4β2(FS) (Xenopus tropicalis, UniProt A0A8J0QAC2+A4IIS6, A4IIS6:S133C)
T3 construct: gene chrna4; full-length single subunits in pCMV-SPORT6 (Dharmacon), cRNA co-injected in Xenopus laevis oocytes; stoichiometry unknown
Excerpt: as §1

[4] = system: T4, Nanorana parkeri α4β2 nAChR, α4β2(FS); details: agonist; α4:β2 cRNA ratio 1:3; -70 mV; Ba-ND96 with 1 µM atropine; room temperature; high-sensitivity site of biphasic fit, 95% CI
T4 construct: full-length single subunits, codon-optimized synthetic DNA in pGEMHE, cRNA co-injected in Xenopus laevis oocytes; behaves as 3α:2β (conjecture)
Excerpt: two-electrode voltage clamp, oocytes, concentration-response on Nanorana parkeri α4β2 nAChR, α4β2(FS)

Structure (SMILES): CC(=O)OCC[N+](C)(C)C [acetylcholine]
- EC50 [1]: 47 nM
- EC50 [2]: 21 nM
- EC50 [3]: 18 nM
- EC50 [4]: 290 nM
